Data: patent publication US6710083B2, “Method of treating palmar and plantar fibromatosis” (priority 2002, dated 2004)

Experiments:
[1] = Side effects, tolerability and laboratory values during the clinical treatment of palmar fibromatosis patients; format: in vivo, human
Method: (§1) Example 1 to 3 illustrate clinical effectiveness of the above described treatment method. An initial treatment and a maintenance treatment as described above were prescribed to the patients. It is noted that the patients described in the Examples were in the average weight range, therefore, an average dosage of 40 mg was used.
(§2) The patient was treated with orally administering Accutane® (Hoffmann-La Roche Inc., Nutley, New Jersey) about 40 mg daily for 14 days. Then the dosage was decreased to a maintenance dosage of 40 mg about twice a week for twelve months.
(§3) The patient was treated with orally administering Accutane® about 40 mg daily for 14 days. Then the dosage was decreased to 40 mg about twice a week for eight months.
(§4) The patient was placed on Accutane® 40 mg daily for two weeks.

[2] = tested on: palmar fibromatosis (Dupuytren's contracture); test: Clinical treatment of patients with palmar fibromatosis (Dupuytren's contracture) with oral Accutane: initial dosage then maintenance dosage; format: in vivo, human
Method: as §1, §2, §3, §4

[3] = Example 2 patient, eight months of therapy

In the case of `CC1=C(/C=C/C(C)=C/C=C/C(C)=C\C(=O)O)C(C)(C)CCC1` [Accutane, 13-cis retinoic acid], the adverse side effects ([1]; Example 1 patient, 40 mg daily 14 days, then 40 mg about twice a week for twelve months) is reported as “No adverse side effects were noted other than drying of lips”, the blood chemistries ([1]; Example 1 patient, low maintenance dosage) is reported as “remained normal” and the laboratory abnormality [1, 3] is reported as “No laboratory abnormality was observed”. For the same molecule, the musculoskeletal pain [1, 3] was “some musculoskelatal pain, which diminished after the third month of the treatment”, the tolerability ([1]; Example 2 patient, lower maintenance dosage) was “well tolerated” and the “serious adverse side effects” value ([1]; patients diagnosed with Dupytren's contracture, described treatment (general statement)) was “no serious adverse side effects were observed”. The “dimple overhead of the third methocarpal bone” value ([2]; Example 1 patient, both hands, after twelve months of therapy) was “disappeared”, the “fibrotic band, right hand” value ([2]; Example 1 patient, middle finger, 4 mm before treatment, 40 mg daily 14 days, then 40 mg about twice a week, after twelve months) was 2 mm and the “fibrotic band, left hand” value ([2]; Example 1 patient, middle finger, oral 40 mg daily for 14 days, then 40 mg about twice a week, after twelve months) was “completely disappeared”. For the same molecule, the “pain and tenderness in the flexor tendon area of the hands” value ([2]; Example 1 patient, patient-described, after twelve months of therapy) was “completely abated”, the “range of fixed flexion of the left middle finger” value ([2]; Example 1 patient, 7 degree before treatment as printed, after twelve months of therapy) was “none” and the “fixed flexion of the right middle finger” value ([2]; Example 1 patient, fixed 15 degree before treatment as printed, after twelve months of therapy) was 3 degree. The “fibrotic ridge of the left hand” value ([2]; Example 2 patient, advanced disease, 40 mg daily 14 days, then 40 mg about twice a week for eight months) was “reduced in scope and size”, the “ring finger's disposition from the flexed position” value ([2]; Example 2 patient, left hand, about 90 degree before treatment, eight months of therapy) was “about 70 degree” and the “tenderness of the left hand caused by the contracture” value ([2]; Example 2 patient, patient-reported, eight months of therapy) was “less tender”. For the same molecule, the “tenderness in the flexor tendon area” value ([2]; Example 3 patient, patient-described, nine months of treatment) was “less tenderness”, the “thickness of the fibrotic band” value ([2]; Example 3 patient, right hand, 40 mg daily two weeks, then 40 mg about twice a week for nine months) was “reduced” and the “restriction of extension of the ring finger” value ([2]; Example 3 patient, right hand, nine months of treatment) was “lessened”. For the same molecule, the “deflection of the right hand ring finger” value ([2]; Example 3 patient, 30 degree before treatment, nine months of treatment) was 20 degree and the “further progression of the contracture” value ([2]; patients with either early stage disease or advanced conditions (general statement)) was “inhibits further progression of the contracture”.
